Activity calls are given as the source filed them. No cut-off for these calls is given here.
Assays:
Mus musculus [1] = assay: Antidiabetic activity in C57BL/6N mouse assessed as reduction in blood glucose AUC at 3 mg/kg, po administered for 60 mins followed by dextrose challenge by OGTT; type: functional
[2] = Plasma concentration in C57BL/6N mouse at 10 mg/kg, po administered for 60 mins followed by dextrose challenge during OGTT method; type: ADME, organism-based
Mus musculus [3] = assay: Antidiabetic activity in C57BL/6N mouse assessed as reduction in blood glucose AUC at 0.3 mg/kg, po administered for 60 mins followed by dextrose challenge by OGTT; type: functional; design: scale not given: the % may be the effect or the level left
Mus musculus [4] = assay: Antidiabetic activity in C57BL/6N mouse assessed as reduction in blood glucose AUC at 1 mg/kg, po administered for 60 mins followed by dextrose challenge by OGTT; type: functional; design: scale not given: the % may be the effect or the level left
[5] = Intrinsic clearance in rat hepatocytes assessed per 10^6 cells at 1 uM after 30 to 120 mins by LC-MS/MS analysis; type: ADME, cell-based, Hepatocyte; conditions: read-out: CLH
Mus musculus [6] = assay: Ex vivo inhibition of DPP4 in C57BL/6N mouse blood at 3 to 10 mg/kg, po measured after 2 to 6 hrs; type: functional
[7] = Plasma concentration in C57BL/6N mouse at 1 mg/kg, po administered for 60 mins followed by dextrose challenge during OGTT method; type: ADME, organism-based
Mus musculus [8] = assay: Antidiabetic activity in C57BL/6N mouse assessed as reduction in blood glucose AUC at 10 mg/kg, po administered for 60 mins followed by dextrose challenge by OGTT; type: functional; design: scale not given: the % may be the effect or the level left
[9] = Plasma concentration in C57BL/6N mouse at 3 mg/kg, po administered for 60 mins followed by dextrose challenge during OGTT method; type: ADME, organism-based
[10] = Intrinsic clearance in dog hepatocytes assessed per 10^6 cells at 1 uM after 30 to 120 mins by LC-MS/MS analysis; type: ADME, cell-based, Canis lupus familiaris, Hepatocyte; conditions: read-out: CLH
Mus musculus [11] = assay: Antidiabetic activity in po dosed C57BL/6N mouse assessed as reduction in blood glucose AUC after 60 mins followed by dextrose challenge by OGTT; type: functional, organism-based
[12] = Plasma concentration in C57BL/6N mouse at 0.3 mg/kg, po administered for 60 mins followed by dextrose challenge during OGTT method; type: ADME, organism-based
[13] = Intrinsic clearance in human hepatocytes assessed per 10^6 cells at 1 uM after 30 to 120 mins by LC-MS/MS analysis; type: ADME, cell-based, Hepatocyte; conditions: read-out: CLH
Mus musculus [14] = assay: Ex vivo inhibition of DPP4 in C57BL/6N mouse blood at 1 to 10 mg/kg, po measured after 24 hrs; type: functional, organism-based
[15] = Intrinsic clearance in cynomolgus monkey hepatocytes assessed per 10^6 cells at 1 uM after 30 to 120 mins by LC-MS/MS analysis; type: ADME, cell-based, Macaca fascicularis, Hepatocyte; conditions: read-out: CLH

Row | SMILES | Activity (Mus musculus [1]) | concentration at 1 h [2] [nM] | Activity (Mus musculus [3]) [%] | Activity (Mus musculus [4]) [%] | hepatocyte CLint at 1 µM [5] [µL/min/1e6 cells] | inhibition (INH) (Mus musculus [6]) [%] | concentration at 1 h [7] [nM] | Activity (Mus musculus [8]) [%] | concentration at 1 h [9] [nM] | hepatocyte CLint at 1 µM [10] [µL/min/1e6 cells] | Activity (Mus musculus [11]) | concentration at 1 h [12] [nM] | hepatocyte CLint at 1 µM [13] [µL/min/1e6 cells] | inhibition (Mus musculus [14]) | hepatocyte CLint at 1 µM [15] [µL/min/1e6 cells]
1 | Cn1c(=O)cc(N2CCC[C@@H](N)C2)n(Cc2ccccc2C#N)c1=O | Active |  |  |  |  |  |  |  |  |  |  |  |  |  | 
2 | CN1C(=O)Cn2c1nc1nc(N3CCC[C@@H](N)C3)n(Cc3cc(F)ccc3C#N)c1c2=O | 64% | 235 | 38 | 52 | 0.3 | >80 | 10 | 63 | 70 | < 1 | Dose-dependent effect | 2 | 0.1 | inactive | < 1
